According to ChEMBL document CHEMBL3779850, “Synthesis, in vitro evaluation, and molecular modeling investigation of benzenesulfonimide peroxisome proliferator-activated receptors α antagonists” (Eur J Med Chem, 2016):
pIC50: −log10 of the molar value. The source made the active and inactive calls. The calls are words filed in the database; no cut-off is given here.

Experiments:
[1] = target: T1, Peroxisome proliferator-activated receptor alpha (Homo sapiens) (UniProt Q07869); assay: Transactivation of PPARalpha (unknown origin) expressed in HEK293A cells at 150 uM after 16 to 18 hrs by luciferase reporter assay relative to control; format: cell-based; conditions: HEK293-A
T1 sequence (whole entry): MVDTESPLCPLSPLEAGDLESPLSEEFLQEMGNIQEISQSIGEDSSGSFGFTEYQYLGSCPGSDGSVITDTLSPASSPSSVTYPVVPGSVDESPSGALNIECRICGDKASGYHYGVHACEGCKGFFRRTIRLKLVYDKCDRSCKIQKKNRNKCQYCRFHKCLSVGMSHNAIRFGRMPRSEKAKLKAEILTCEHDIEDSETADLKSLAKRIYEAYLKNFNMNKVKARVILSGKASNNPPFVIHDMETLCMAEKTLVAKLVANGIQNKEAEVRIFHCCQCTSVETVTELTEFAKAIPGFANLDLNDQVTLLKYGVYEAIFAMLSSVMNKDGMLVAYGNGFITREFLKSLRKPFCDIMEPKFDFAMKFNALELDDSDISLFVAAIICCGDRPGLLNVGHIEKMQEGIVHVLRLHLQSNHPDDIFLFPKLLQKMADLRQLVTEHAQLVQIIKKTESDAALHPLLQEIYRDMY

[2] = target: T2, Peroxisome proliferator-activated receptor gamma (Homo sapiens) (UniProt P37231); assay: Transactivation of PPARgamma (unknown origin) expressed in HEK293A cells at IC50 after 16 to 18 hrs by luciferase reporter assay; format: cell-based; conditions: HEK293-A
T2 sequence (whole entry): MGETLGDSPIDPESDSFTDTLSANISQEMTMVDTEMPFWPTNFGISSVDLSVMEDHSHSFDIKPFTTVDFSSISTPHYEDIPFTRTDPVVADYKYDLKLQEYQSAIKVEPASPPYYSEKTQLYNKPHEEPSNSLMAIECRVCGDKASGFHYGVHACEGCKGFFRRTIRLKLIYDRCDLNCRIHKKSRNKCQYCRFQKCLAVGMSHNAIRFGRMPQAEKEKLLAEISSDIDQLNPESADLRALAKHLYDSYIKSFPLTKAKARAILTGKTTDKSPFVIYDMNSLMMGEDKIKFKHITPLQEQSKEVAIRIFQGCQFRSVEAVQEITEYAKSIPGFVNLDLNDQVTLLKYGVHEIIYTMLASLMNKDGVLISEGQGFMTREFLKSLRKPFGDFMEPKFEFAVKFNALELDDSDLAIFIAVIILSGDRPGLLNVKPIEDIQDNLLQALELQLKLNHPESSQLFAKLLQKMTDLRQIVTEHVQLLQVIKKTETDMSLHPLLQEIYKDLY

[3] = target: T3, Peroxisome proliferator-activated receptor delta (Homo sapiens) (UniProt Q03181); assay: Transactivation of PPARdelta (unknown origin) expressed in HEK293A cells after 16 to 18 hrs by luciferase reporter assay; format: cell-based; conditions: HEK293-A
T3 sequence (whole entry): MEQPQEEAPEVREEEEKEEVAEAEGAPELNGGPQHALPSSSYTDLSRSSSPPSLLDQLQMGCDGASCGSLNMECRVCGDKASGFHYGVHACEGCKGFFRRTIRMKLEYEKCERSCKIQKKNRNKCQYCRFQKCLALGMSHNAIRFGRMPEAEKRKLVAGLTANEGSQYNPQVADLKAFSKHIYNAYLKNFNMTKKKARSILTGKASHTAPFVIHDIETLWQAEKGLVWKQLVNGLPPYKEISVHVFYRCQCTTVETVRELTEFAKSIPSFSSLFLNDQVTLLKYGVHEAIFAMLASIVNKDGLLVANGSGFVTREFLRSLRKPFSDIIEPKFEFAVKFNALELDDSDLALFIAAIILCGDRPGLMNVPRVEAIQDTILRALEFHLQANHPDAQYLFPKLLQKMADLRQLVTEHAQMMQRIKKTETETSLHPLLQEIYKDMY

[4] = target: T4, Peroxisome proliferator-activated receptor alpha (Homo sapiens, UniProt Q07869); assay: Antagonist activity at PPARalpha (unknown origin) expressed in HEK293A cells assessed as inhibition of GW7647-induced transactivation after 16 to 18 hrs by luciferase reporter assay; format: cell-based, HEK293-A
T4 sequence (Q07869 whole entry): T1 sequence (whole entry)

[5] = target: T2, Peroxisome proliferator-activated receptor gamma (Homo sapiens); assay: Antagonist activity at PPARgamma (unknown origin) expressed in HEK293A cells after 16 to 18 hrs by luciferase reporter assay; format: cell-based; conditions: HEK293-A
[6] = target: T1, Peroxisome proliferator-activated receptor alpha (Homo sapiens); assay: Transactivation of PPARalpha in human HepG2 cells assessed as increase in CPT1 mRNA expression at 150 uM after 48 hrs by RT-PCR method; format: cell-based
[7] = target: T1, Peroxisome proliferator-activated receptor alpha (Homo sapiens); assay: Antagonist activity at PPARalpha in human HepG2 cells assessed as inhibition of GW7647-induced CPT1 mRNA expression at 150 uM after 48 hrs by RT-PCR method; format: cell-based

Row | Compound | fold change (FC) [1] | Activity [2] | Activity [3] | pIC50 [4] | inhibition [5] | Activity [6] | inhibition [7]
1 | O=C(NS(=O)(=O)c1ccc(Cl)cc1)C(Sc1nc2cc(Cl)ccc2s1)c1ccccc1 (stereo not given) | 0.9 | Active | inactive |  |  |  | 
2 | CC(C)(Oc1ccc(Cl)cc1)C(=O)NS(=O)(=O)c1ccccc1 | 0.47 |  |  | 6.19 |  |  | 
3 | CC(C)(Oc1ccc(CCNC(=O)c2ccc(Cl)cc2)cc1)C(=O)NS(=O)(=O)c1ccccc1 | 0.28 |  |  | 6.10 |  |  | 
4 | O=C(NS(=O)(=O)c1ccc([N+](=O)[O-])cc1)C(Sc1nc2cc(Cl)ccc2s1)c1ccccc1 (stereo not given) | 0.22 |  | inactive | 6.09 | Active | inactive | Active
5 | CCCC(Sc1nc2cc(Cl)ccc2s1)C(=O)NS(=O)(=O)c1ccc(NC(=O)c2ccccc2)cc1 (stereo not given) | 0.05 |  | inactive | 5.35 | Active |  | 
6 | Cc1ccc(C)c(OCCCC(C)(C)C(=O)NS(=O)(=O)c2ccccc2)c1 | 0.05 |  |  | 5.06 |  |  | 
7 | CC(C)(Oc1ccc(C(=O)c2ccc(Cl)cc2)cc1)C(=O)NS(=O)(=O)c1ccccc1 | 0.08 |  |  | 5.12 |  |  | 

The remaining lines, values ahead:

Row | fold change (FC) [1] | Activity [2] | Activity [3] | pIC50 [4] | inhibition [5] | Activity [6] | inhibition [7] | Compound
8 | 0.04 |  | inactive | 5.16 | Active |  |  | CCCC(Sc1nc2cc(Cl)ccc2s1)C(=O)NS(=O)(=O)c1ccc(Cl)cc1 (stereo not given)
9 | 0.2 |  | inactive | 3.97 | Active |  |  | CCCC(Sc1nc2cc(Cl)ccc2s1)C(=O)NS(=O)(=O)c1ccc(NC(C)=O)cc1 (stereo not given)
10 | 0.03 |  | inactive | 6.07 | Active | inactive | Active | CCCC(Sc1nc2cc(Cl)ccc2s1)C(=O)NS(=O)(=O)c1ccc([N+](=O)[O-])cc1 (stereo not given)
11 | < 0.01 |  | inactive | 5.34 | Active |  |  | CCCC(Sc1nc2cc(Cl)ccc2s1)C(=O)NS(=O)(=O)c1ccc(C)cc1 (stereo not given)
12 | < 0.01 |  | inactive | 6.17 | Active | inactive | Active | CCCC(Sc1nc2cc(Cl)ccc2s1)C(=O)NS(=O)(=O)c1ccc(OC)cc1 (stereo not given)
